{"source": "paper PMC6815954", "about": "“Rational design of caspase-responsive smart molecular probe for positron emission tomography imaging of drug-induced apoptosis” (Theranostics, 2019)", "key": {"[1]": {"tested_on": "intact caspase-3 (35 kDa)", "experiment": "Western blotting of DOX-treated HeLa cells, intact caspase-3", "type": "cell-based, human", "settings": "24 h", "procedure": "(§1) Western blotting analysis of caspase-3 activity in DOX-treated HeLa cells HeLa cells were seeded into 6-well plates at the density of 5 ×10^5 cells/well, followed by treatment with various concentrations of DOX for 24 h. Cells were washed with ice-cold PBS and then lysed at 4 °C for 5 min with RIPA lysis buffer containing protease and phosphatase inhibitors (Halt Protease Inhibitor Cocktail, Thermo Fisher Scientific Inc.). Soluble lysates were harvested by centrifugation at 12,000 rpm for 10 min at 4 °C. The content of protein was […]\n(§2) (1 picture or pasted object on this page, not shown here) […]\n(§3) measured using BCA protein assay kit and 40 μg of protein was separated with a 12% […]\n(§4) SDS-PAGE gel. After blotting to PVDF membrane, the membranes were blocked with 5% […]\n(§5) skimmed milk in tris-buffered saline (TBS, pH 7.4) for 60 min at room temperature and […]\n(§6) incubated overnight at 4 °C in buffer (TBS with 0.1% Tween-20 and 5% skimmed milk) […]\n(§7) containing different antibodies. Detection of primary antibodies was performed with […]\n(§8) HRP-conjugated secondary antibody. Immunoreactive bands were visualized with Western […]\n(§9) blotting luminol reagent. Densitometric analysis was performed using Image J software. […]\n(§10) The DOX-treated group was cultured in the presence of DOX (2 µM) […]\n(§11) for 6 h at 37 °C, then the medium was changed and the cells were cultured for another 24 h at […]\n(§12) 37 °C. After incubated with 1-FITC (2 µM) for 6 h at 37 °C, the cells were washed with PBS, […]\n(§13) fixed with 3.7% formaldehyde in PBS and permeabilized with 0.1% Triton X-100 in PBS for […]\n(§14) 30 min at room temperature. Cells were blocked with 5% BSA in PBS for 30 min, and then […]\n(§15) washed with PBS. Afterwards, cells were incubated with anti-caspase-3 antibody (caspase-3 […]\n(§16) rabbit monoclonal antibody, Beyotime) overnight at 4 °C, washed with PBS, and incubated […]\n(§17) with Cy3-labeled goat anti-rabbit IgG (Beyotime) for 1 h. Cells were washed with PBS […]\n(§18) andstained with DAPI (5 µg/mL) for 2 min, and thenwashed twice with PBS. Finally, the cells […]\n(§19) were viewed with the Olympus Xcellence. […]"}, "[2]": {"tested_on": "active caspase-3 (19/17 kDa)", "experiment": "Western blotting of DOX-treated HeLa cells, active caspase-3", "type": "cell-based, human", "settings": "24 h", "procedure": "as §1, §2, §3, §4, §5, §6, §7, §8, §9, §10, §11, §12, §13, §14, §15, §16, §17, §18, §19"}, "[3]": {"tested_on": "activated caspase-3 (19/17 kDa)", "experiment": "Western blotting of tumor and muscle lysates", "type": "in vivo, BALB/c nude mice", "settings": "DOX intratumoral; normalized to β-actin; n = 3", "procedure": "At the end of microPET imaging, DOX-treated or untreated mice were killed. Tumor and muscle tissues (~100 mg) were homogenized by an electronic homogenate machine in RIPA lysis buffer (1 mL) containing protease and phosphatase inhibitors (Halt Protease Inhibitor Cocktail, Thermo Fisher Scientific Inc.). Soluble lysates were harvested by centrifugation at 12,000 rpm for 10 min at 4 °C. Protein content was measured using BCA protein assay kit and 40 μg of protein was separated with a 12% SDS-PAGE gel. After blotting to PVDF membrane, the membranes were blocked with 5% skimmed milk in tris-buffered saline (TBS, pH 7.4) for 60 min at room temperature and incubated overnight at 4 °C in buffer (TBS with 0.1% Tween-20 and 5% skimmed milk) containing different antibodies. Detection of primary antibody was performed with HRP-conjugated secondary antibody. Immunoreactive bands were visualized with Western blotting luminol reagent. Densitometric analysis was performed using Image J software."}, "HeLa cells": {"tested_on": "HeLa cells", "experiment": "Cellular uptake assay of [^18F]1", "type": "cell-based, human", "procedure": "green fluorescence) for 6 h. The active caspase-3 was stained with anti-caspase-3 primary antibody and a Cy3-labeled secondary antibody (red fluorescence). The cell nuclei were stained with DAPI (blue fluorescence). The images of 1-FITC and active caspase-3 were merged in the last column.\nHeLa cells were seeded into a 6-well plate and incubated for 24 h at 37 °C. The cells were cultured in the presence of DOX (2 µM) at 37 °C for 0, 2, 4, 6, 12, and 24 h, respectively. The probe [ 18F]1 (1.0 µCi, 0.037 MBq) was added to each well and incubated for additional 4 h at 37 °C. For inhibition assay, the caspase inhibitor Z-VAD-FMK (50 µM) was added to the DOX-treated cells for 48 h before the addition of [ 18F]1. To study the influence of cold compound 1 on cellular uptake of [ 18F]1 in DOX-treated or untreated cells, HeLa cells were incubated with the cold compound 1 (10 µM) and [ 18F]1 for 4 h at 37 °C.The cells were harvested withcentrifugal separationat 4,000 rpm for 5 min after washing twice with PBS. Then Tryp-LE TM Express (1 mL) was added and the cells were kept for 1-2 min to allow detaching. The cell/Tryp-LE solution was counted by a γ counter and the activity was normalized to the protein concentration (determined by comparison with BSA standard in an absorption assay from Pierce) in each vial.\nFigure S23. […]"}, "HeLa xenograft tumor": {"tested_on": "HeLa xenograft tumor", "settings": "for tracer uptake ratio in DOX-treated versus untreated tumors: only [^18F]1", "method": "BALB/c nude mice (18-20 g, 4-6 weeks old) were used for animal experiments. Mice were housed with free access to food and water, and allowed ample time to acclimatize before the experiments. The tumor models were established by subcutaneous injection of human cervical cancer cells HeLa (1~2×10^6) suspended in PBS (100 µL) in the right shoulder or the posterior limb of the nude mouse. The tumors were allowed to grow for around 3-4 weeks to reach the size of 0.5-1.0 cm in diameter. Then, a subset of mice were treated with intratumoral or intravenous injection of DOX (0.2 mg, in 20 µL). Three days later, the animals were used for PET imaging and then the tumors were removed for the analysis of caspase-3 activity. All procedures were approved by the Animal Care and Ethics Committee of Jiangsu Institute of Nuclear Medicine.\nPET scanning was carried out using an Inveon Dedicated microPET scanner (Siemens). In all experiments, the mice were anesthetized with isoflurane (2% isoflurane in oxygen at a flow rate of 2 L/min). One group of HeLa-bearing mice were scanned at baseline (without DOX treatment) as a control. For the experimental groups, microPET imaging was performed for one group of mice three days after a single intratumoral injection of DOX (0.2 mg) and the other group was performed after intravenous injection of DOX (0.2 mg) every 4 days for a total of three administrations. The probe [^18F]1 (~100 μCi, in 100 μL physiological saline) was administrated by intravenous injection via the tail vein. For the co-injection group, the mice were administrated by intravenous injection of the probe [^18F]1 with the precursor 1 (20 µmol/kg) via the tail vein. PET images were acquired in a list mode date for 60 min. The PET data were binned into 12 frames and each frame was reconstructed with the OSEM3D/MAP algorithm using microPET Manager (version 6869, Siemens). The reconstructed pixel size was 0.78 × 0.78 × 0.80 mm on a 128 × 128 × 159 image matrix. All PET images were corrected for decay but not for attenuation. Each image was analyzed using ASIPro software (Siemens). […]"}, "tumor [4]": {"tested_on": "tumor", "design": "method as in PMID 25972517", "settings": "cited from earlier work"}, "tumor [5]": {"tested_on": "tumor", "settings": "cited from earlier work", "excerpt": "Recently, a potential PET imaging agent [^18F]ICMT-11 for monitoring the tumor cell death has been approved for clinical trials, where only a modest increase of 65% uptake can be observed in the treated tumor in comparison with the vehicle control tumor [36]."}}, "note": "Read-outs that look alike come from different tables or passages of the source.", "data": [{"compound": "COc1cccc2c1C(=O)c1c(O)c3c(c(O)c1C2=O)C[C@@](O)(C(=O)CO)C[C@@H]3O[C@H]1C[C@H](N)[C@H](O)[C@H](C)O1", "note": "[DOX, doxorubicin]", "values": [{"measurement": "decrease of intact caspase-3 expression versus DOX-untreated cells", "setting": "[1]; 0.5 µM DOX", "result": 1.3, "unit": "folds"}, {"measurement": "decrease of intact caspase-3 expression versus DOX-untreated cells", "setting": "[1]; 1 µM DOX", "result": 1.5, "unit": "folds"}, {"measurement": "decrease of intact caspase-3 expression versus DOX-untreated cells", "setting": "[1]; 2 µM DOX", "result": 2.1, "unit": "folds"}, {"measurement": "decrease of intact caspase-3 expression versus DOX-untreated cells", "setting": "[1]; 4 µM DOX", "result": 2.2, "unit": "folds"}, {"measurement": "increase of active caspase-3 expression versus DOX-untreated cells", "setting": "[2]; 0.5 µM DOX", "result": 3.3, "unit": "folds"}, {"measurement": "increase of active caspase-3 expression versus DOX-untreated cells", "setting": "[2]; 1 µM DOX", "result": 9.3, "unit": "folds"}, {"measurement": "increase of active caspase-3 expression versus DOX-untreated cells", "setting": "[2]; 2 µM DOX", "result": 13.4, "unit": "folds"}, {"measurement": "increase of active caspase-3 expression versus DOX-untreated cells", "setting": "[2]; 4 µM DOX", "result": 15.5, "unit": "folds"}, {"measurement": "expression level of activated caspase-3 in DOX-treated tumor versus muscle", "setting": "[3]", "result": 7.5, "unit": "folds"}, {"measurement": "expression level of activated caspase-3 in DOX-treated tumor versus untreated tumor", "setting": "[3]", "result": 4.5, "unit": "folds"}]}, {"compound": "[^18F]DEVD-Cys(StBu)-PPG(CBT)-AmBF3 [[^18F]1]", "values": [{"measurement": "uptake with versus without addition of cold compound 1", "setting": "HeLa cells; DOX-untreated HeLa, cold 1 10 µM, 4 h, 37 °C", "result": "almost identical"}, {"measurement": "retained [^18F] activity in DOX-treated cells with caspase inhibitor, versus untreated tumor cells", "setting": "HeLa cells; HeLa, DOX 24 h, Z-VAD-FMK 50 µM for 48 h before [^18F]1", "result": "almost identical"}, {"measurement": "tumor-to-muscle uptake ratio in treated apoptotic tumor model relative to untreated group", "setting": "HeLa xenograft tumor; 20 min post injection", "result": "more than two folds"}, {"measurement": "tracer uptake ratio in DOX-treated versus untreated tumors", "setting": "HeLa xenograft tumor; DOX intratumoral, 15-20 min post injection", "result": 4.23}, {"measurement": "tracer uptake ratio in DOX-treated versus untreated tumors", "setting": "HeLa xenograft tumor; DOX intravenous", "result": 3.01}]}, {"compound": "OC[C@H]1OC(O)[C@H]([18F])[C@@H](O)[C@@H]1O", "note": "(stereo partly shown) [^18F-FDG]", "values": [{"measurement": "response to cell death", "setting": "tumor [4]", "result": "no differentiated response"}]}, {"compound": "CC(CCCCC[18F])(C(=O)O)C(=O)O", "note": "[^18F-ML-10]", "values": [{"measurement": "differential response to treatment", "setting": "tumor [4]", "result": "little differential response"}, {"measurement": "response to cell death", "setting": "tumor [4]", "result": "no differentiated response"}]}, {"compound": "O=C1C(=O)N(Cc2cn(CC[18F])nn2)c2ccc(S(=O)(=O)N3CCCC3COc3ccc(F)cc3F)cc21", "note": "(stereo not shown) [[^18F]ICMT-11]", "values": [{"measurement": "increase of uptake in treated tumor versus vehicle control tumor", "setting": "tumor [5]", "result": 65, "unit": "%"}]}]}
